How the values were obtained:
[1] = tested on: OC-314 (Ovarian Carcinoma); assay: Bliss excess, mean over the matrix (fraction); higher = more synergy
Procedure, shortened: (§1)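 Cell lines grown in DMEM/F12 or RPMI with 10% FBS were plated in 1536-well plates and held 24 hours at 37°C, 5% CO2 before 72 hours of exposure to two-drug dose matrices, with DMSO typically at 0.2%. CellTiter-Glo 2.0 luminescence gave viability, which was converted to inhibition. Vehicle wells were set to 0 and blank wells to 1. Combination Emax is the second-highest inhibition in the matrix, and Bliss excess is the observed combination effect minus the expected EA + EB − EA·EB, where EA and EB are the single-agent effects.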

[2] = tested on: OVCAR-8 (Ovarian Carcinoma); assay: as above
Procedure, shortened: as §1

[3] = tested on: LU-139 (Small Cell Lung Carcinoma); assay: as above
Procedure, shortened: as §1

[4] = tested on: HO-1-u-1 (Oral Cavity Carcinoma); assay: as above
Procedure, shortened: as §1

[5] = tested on: LoVo (Colorectal Carcinoma); assay: combination Emax (second highest fraction inhibited in the dose matrix, 72 h); higher = more inhibition; extreme values may be limits of the assay
Procedure, shortened: as §1

[6] = tested on: Mewo (Melanoma); assay: as above
Procedure, shortened: as §1

[7] = tested on: PCI-30 (Head and Neck Carcinoma); assay: as above
Procedure, shortened: as §1

[8] = tested on: OC-314 (Ovarian Carcinoma); assay: as above
Procedure, shortened: as §1

[9] = tested on: HARA (Squamous Cell Lung Carcinoma); assay: as above
Procedure, shortened: as §1

[10] = tested on: NCI-H747 (Colorectal Carcinoma); assay: as above
Procedure, shortened: as §1

[11] = tested on: OVCAR-8 (Ovarian Carcinoma); assay: as above
Procedure, shortened: as §1

[12] = tested on: SW1116 (Colorectal Carcinoma); assay: as above
Procedure, shortened: as §1

[13] = tested on: COLO-829 (Melanoma); assay: as above
Procedure, shortened: as §1

[14] = tested on: HMV-II (Melanoma); assay: as above
Procedure, shortened: as §1

[15] = tested on: CAL-51 (Breast Carcinoma); assay: as above
Procedure, shortened: as §1

[16] = tested on: NCI-H69 (Small Cell Lung Carcinoma); assay: as above
Procedure, shortened: as §1

[17] = tested on: 8305C (Thyroid Gland Carcinoma); assay: as above
Procedure, shortened: as §1

[18] = tested on: TE-4 (Esophageal Squamous Cell Carcinoma); assay: as above
Procedure, shortened: as §1

[19] = tested on: RKO (Colorectal Carcinoma); assay: as above
Procedure, shortened: as §1

[20] = tested on: MHH-PREB-1 (B-Cell Non-Hodgkin's Lymphoma); assay: as above
Procedure, shortened: as §1
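Wherever Bliss excess, mean over the matrix is given: after 72 h of two-drug dosing.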

| Structure (SMILES) | Bliss excess [1] | Bliss excess [2] | Bliss excess [3] | Bliss excess [4] | combination Emax [5] | combination Emax [6] | combination Emax [7] | combination Emax [8] | combination Emax [9] | combination Emax [10] | combination Emax [11] | combination Emax [12] | combination Emax [13] | combination Emax [14] | combination Emax [15] | combination Emax [16] | combination Emax [17] | combination Emax [18] | combination Emax [19] | combination Emax [20] |
| --- | --- | --- | --- | --- | --- | --- | --- | --- | --- | --- | --- | --- | --- | --- | --- | --- | --- | --- | --- | --- |
| CN(CCO)CC[C@H](CSc1ccccc1)Nc1ccc(S(=O)(=O)NC(=O)c2ccc(N3CCC([C@@H](O)c4ccccc4-c4ccc(Cl)cc4)CC3)cc2)cc1S(=O)(=O)C(F)(F)F [AZD4320] + C[C@@H]1COCCN1C2=NC(=NC(=C2)C3(CC3)[S@](=N)(=O)C)C4=C5C=CNC5=NC=C4 [AZD6738] (first compound max 1 µM, 7x7, partner max 10 µM) | -0.0066 | -0.0222 | -0.0613 | 0.021 | 0.838 | 0.647 | 0.653 | 0.909 | 0.884 | 0.333 | 0.796 | 0.375 | 0.213 | 0.331 | 0.919 | 0.927 | 0.834 | 0.691 | 0.85 | 0.754 |
| COc1nnc2ccc(N3CCC(c4ccc(OCCN5CCN(C)C(=O)[C@H]5C)cc4)CC3)nn12 [AZD5153] + Cc1c2c(nn1C)CSCc1cc(n(C)n1)CSc1cc(c3ccccc3c1)OCCCc1c(C(=O)O)n(C)c3c-2c(Cl)ccc13 [AZD5991] (first compound max 1 µM, 7x7, partner max 1 µM) | -0.0625 | 0.0205 | -0.0069 | -0.0055 | 0.545 | 0.719 | 0.344 | 0.842 | 0.741 | 0.734 | 0.905 | 0.414 | 0.514 | 0.76 | 0.917 | 0.507 | 0.545 | 0.847 | 0.78 | 0.461 |
| CCN(CCO)CCCOc1ccc2c(Nc3cc(CC(=O)Nc4cccc(F)c4)[nH]n3)ncnc2c1 [AZD2811] + C=CCn1c(=O)c2cnc(Nc3ccc(N4CCN(C)CC4)cc3)nc2n1-c1cccc(C(C)(C)O)n1 [AZD1775] (first compound max 1 µM, partner max 1 µM) | 0.0976 | 0.0213 | -0.0426 | -0.0168 | 0.835 | 0.402 | 0.344 | 0.839 | 0.788 | 0.414 | 0.791 | 0.208 | 0.274 | 0.473 | 0.815 | 0.602 | 0.89 | 0.171 | 0.655 | 0.718 |
| CS(=O)(=O)CCNCc1ccc(-c2ccc3ncnc(Nc4ccc(OCc5cccc(F)c5)c(Cl)c4)c3c2)o1 [Lapatinib] + C[C@@H](Oc1cc(-c2cnn(C3CCNCC3)c2)cnc1N)c1c(Cl)ccc(F)c1Cl [Crizotinib] (first compound max 10 µM, 7x7, partner max 10 µM) | -0.0479 | -0.037 | -0.0147 | -0.0264 | 0.708 | 0.537 | 0.366 | 0.881 | 0.95 | 0.926 | 0.79 | 0.688 | 0.711 | 0.912 | 0.691 | 0.845 | 0.94 | 1 | 0.942 | 0.96 |

From the supplement of paper PMC11061612
